The text below walks through data of ChEMBL document CHEMBL3425452, “Farnesyl diphosphate synthase inhibitors with unique ligand-binding geometries” (ACS Med Chem Lett, 2015).

Assay [1] is described as follows: Inhibition of Leishmania donovani FPPS.
A short description of assay [2]: Inhibition of Trypanosoma brucei FPPS.
Assay [3] relates to Trypanosoma brucei rhodesiense. As to the kind of experiment: Growth inhibition of Trypanosoma brucei rhodesiense.

Each structure is given as a SMILES string.

Take `O=P(O)(O)C(O)(CCc1cccnc1)P(=O)(O)O`: the IC50 in assay [1] is 5400 nM; in assay [2], 33000 nM. The half-maximal effective concentration (EC50) in assay [3] worked out at 1700 nM.

For the compound `O=P(O)(O)C(O)(Cc1cccnc1)P(=O)(O)O` [RISEDRONIC ACID], in assay [2], half-maximal inhibition (IC50) required 300 nM.

As for `Cc1cccnc1NC(P(=O)(O)O)P(=O)(O)O`, the IC50 in assay [2] was 230 nM.
